Data as given in patent publication US8148367B2 (Takeda Pharmaceutical Company Limited, priority 2008, dated 2012).

biological target: T1, Recombinant human renin (Homo sapiens, UniProt P00797); experiment: In vitro enzymatic activity assay of renin inhibitors (fluorescence, QXL520/HiLyteFluo488 peptide substrate); assay type: biochemical; settings: not given
T1 construct: isolate the active form (residues 67-406); made in house; host or cells: FreeStyle 293-F cells, transient expression of pcDNA3.1(+)/hREN
T1 sequence (P00797 67-406): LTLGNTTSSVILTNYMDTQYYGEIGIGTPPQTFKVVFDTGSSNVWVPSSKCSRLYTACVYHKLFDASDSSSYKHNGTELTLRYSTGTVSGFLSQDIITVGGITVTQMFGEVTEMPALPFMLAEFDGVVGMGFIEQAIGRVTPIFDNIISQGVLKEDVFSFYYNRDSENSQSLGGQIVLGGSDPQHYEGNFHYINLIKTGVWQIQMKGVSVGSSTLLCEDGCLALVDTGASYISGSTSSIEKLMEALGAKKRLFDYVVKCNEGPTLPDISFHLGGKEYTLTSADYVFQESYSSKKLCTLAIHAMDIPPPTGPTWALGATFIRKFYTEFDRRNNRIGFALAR

| Structure (SMILES) | IC50 [µM] |
| --- | --- |
| Cc1ccccc1-n1c(-c2ccccc2)c(C(=O)N2CCNCC2)n(CCCNC(=O)Oc2ccccc2)c1=O [Example 252, Phenyl 3-(2-oxo-4-phenyl-5-(piperazine-1-carbonyl)-3-o-tolyl-2,3-dihydro-1H-imidazol-1-yl)propylcarbamate] | > 1 |

same assay, conditions: recombinant human renin 3 nM, 1 μM substrate, pre-incubated 10 minutes at 37° C., incubation one hour, pH 7.4, 5% DMSO; read-out: IC50 of Exemplified Compounds Against Renin

| IC50 [µM] | Structure (SMILES) |
| --- | --- |
| < 0.1 | COCCN1CCOc2ccc(-n3c(-c4ccccc4)c(C(=O)N4CCNC[C@H]4Cc4ccccc4)[nH]c3=O)cc21 [Example 137, (R)-4-(2-Benzylpiperazine-1-carbonyl)-1-(4-(2-methoxyethyl)-3,4-dihydro-2H-benzo[b][1,4]oxazin-6-yl)-5-phenyl-1H-imidazol-2(3H)-one] |
| 0.5 to 1 | O=C(NCCCn1c(C(=O)N2CCNCC2)c(-c2ccccc2)n(-c2cccc(N3CCOCC3)c2)c1=O)Nc1ccccc1 [Example 200, 1-(3-(3-(3-Morpholinophenyl)-2-oxo-4-phenyl-5-(piperazine-1-carbonyl)-2,3-dihydro-1H-imidazol-1-yl)propyl)-3-phenylurea] |
| > 1 | O=C(c1c(-c2ccccc2)n(-c2ccccc2)c(=O)n1CC1CCOCC1)N1CCNCC1 [Example 53, 1,5-Diphenyl-4-(piperazine-1-carbonyl)-3-((tetrahydro-2H-pyran-4-yl)methyl)-1H-imidazol-2(3H)-one] |
| > 1 | Cc1ccccc1-n1c(-c2ccccc2)c(C(=O)N2CCNCC2)n(CCCNC(=O)NC(C)C)c1=O [Example 227, 1-Isopropyl-3-(3-(2-oxo-4-phenyl-5-(piperazine-1-carbonyl)-3-o-tolyl-2,3-dihydro-1H-imidazol-1-yl)propyl)urea] |
| > 1 | COCCCOc1cccc(-n2c(-c3ccccc3)c(C(=O)N3CCNCC3)n(CCNS(=O)(=O)c3ccccc3)c2=O)c1 [Example 183, N-(2-(3-(3-(3-Methoxypropoxy)phenyl)-2-oxo-4-phenyl-5-(piperazine-1-carbonyl)-2,3-dihydro-1H-imidazol-1-yl)ethyl)benzenesulfonamide] |
| > 1 | O=C(c1c(-c2ccccc2)n(-c2cccc(N3CCOCC3)c2)c(=O)n1CC1CCCCC1)N1CCNCC1 [Example 189, 1-(Cyclohexylmethyl)-3-(3-morpholinophenyl)-4-phenyl-5-(piperazine-1-carbonyl)-1H-imidazol-2(3H)-one] |
| 0.1 to 0.5 | O=C(c1c(-c2ccccc2)n(-c2cccc(N3CCOCC3)c2)c(=O)n1CCCNS(=O)(=O)c1ccccc1)N1CCNCC1 [Example 175, N-(3-(3-(3-Morpholinophenyl)-2-oxo-4-phenyl-5-(piperazine-1-carbonyl)-2,3-dihydro-1H-imidazol-1-yl)propyl)benzenesulfonamide] |
| > 1 | Cc1ccccc1-n1c(-c2ccccc2)c(C(=O)N2CCNCC2)n(CCCNC(=O)C2CCCCC2)c1=O [Example 247, N-(3-(2-oxo-4-phenyl-5-(piperazine-1-carbonyl)-3-o-tolyl-2,3-dihydro-1H-imidazol-1-yl)propyl)cyclohexanecarboxamide] |
| 0.1 to 0.5 | Cc1ccccc1-n1c(-c2ccccc2)c(C(=O)N2CCNCC2)n(CCCNS(=O)(=O)c2cccc(Cl)c2)c1=O [Example 218, 3-Chloro-N-(3-(2-oxo-4-phenyl-5-(piperazine-1-carbonyl)-3-o-tolyl-2,3-dihydro-1H-imidazol-1-yl)propyl)benzenesulfonamide] |
| > 1 | COc1ccccc1-n1c(-c2ccccc2)c(C(=O)N2CCNCC2)n(CCNC(=O)CC(C)C)c1=O [Example 169, N-(2-(3-(2-Methoxyphenyl)-2-oxo-4-phenyl-5-(piperazine-1-carbonyl)-2,3-dihydro-1H-imidazol-1-yl)ethyl)-3-methylbutanamide] |
| > 1 | COc1ccccc1-n1c(-c2ccccc2)c(C(=O)N2CCNCC2)n(CCCNC(=O)CC(C)C)c1=O [Example 167, N-(3-(3-(2-Methoxyphenyl)-2-oxo-4-phenyl-5-(piperazine-1-carbonyl)-2,3-dihydro-1H-imidazol-1-yl)propyl)-3-methylbutanamide] |
| > 1 | COc1cccc(Cn2c(C(=O)N3CCNCC3)c(-c3ccccc3)n(-c3ccccc3OC)c2=O)c1 [Example 147, 1-(3-Methoxybenzyl)-3-(2-methoxyphenyl)-4-phenyl-5-(piperazine-1-carbonyl)-1H-imidazol-2(3H)-one] |
| > 1 | O=C(c1c(-c2ccccc2)n(C2CCCN(S(=O)(=O)c3ccccn3)C2)c(=O)n1Cc1ccccc1)N1CCNCC1 (stereo not drawn) [Example 101, 1-Benzyl-4-phenyl-5-(piperazine-1-carbonyl)-3-(1-(pyridin-2-ylsulfonyl)piperidin-3-yl)-1H-imidazol-2(3H)-one] |
| 0.5 to 1 | COc1ccc(NC(=O)NCCn2c(C(=O)N3CCNCC3)c(-c3ccccc3)n(-c3ccccc3C)c2=O)cc1 [Example 228, 1-(4-Methoxyphenyl)-3-(2-(2-oxo-4-phenyl-5-(piperazine-1-carbonyl)-3-o-tolyl-2,3-dihydro-1H-imidazol-1-yl)ethyl)urea] |
| < 0.1 | CCOC(=O)N1CCc2ccc(-n3c(-c4ccccc4)c(C(=O)N4CCNC[C@H]4Cc4ccccc4)[nH]c3=O)cc21 [Example 139, (R)-Ethyl 6-(4-(2-benzylpiperazine-1-carbonyl)-2-oxo-5-phenyl-2,3-dihydro-1H-imidazol-1-yl)indoline-1-carboxylate] |
| > 1 | O=C(c1c(-c2ccccc2)n(-c2ccccc2)c(=O)n1Cc1cccc2cccnc12)N1CCNCC1 [Example 82, 1,5-Diphenyl-4-(piperazine-1-carbonyl)-3-(quinolin-8-ylmethyl)-1H-imidazol-2(3H)-one] |
| > 1 | NC(=O)Cn1c(C(=O)N2CCNCC2)c(-c2ccccc2)n(C2CCCCC2)c1=O [Example 63, 2-(3-Cyclohexyl-2-oxo-4-phenyl-5-(piperazine-1-carbonyl)-2,3-dihydro-1H-imidazol-1-yl)acetamide] |
| > 1 | O=C(c1[nH]c(=O)n(-c2ccccc2)c1CC1CC1)N1CCNCC1 [Example 25, 5-(Cyclopropylmethyl)-1-phenyl-4-(piperazine-1-carbonyl)-1H-imidazol-2(3H)-one] |
| > 1 | CC1CN(C(=O)c2[nH]c(=O)n(C3CCCCC3)c2-c2ccccc2)CCN1 (stereo not drawn) [Example 38, 1-Cyclohexyl-4-(3-methylpiperazine-1-carbonyl)-5-phenyl-1H-imidazol-2(3H)-one] |
| 0.5 to 1 | COCCCOc1cccc(-n2c(-c3ccccc3)c(C(=O)N3CCNCC3)n(Cc3ccc(F)c(F)c3)c2=O)c1 [Example 164, 1-(3,4-Difluorobenzyl)-3-(3-(3-methoxypropoxy)phenyl)-4-phenyl-5-(piperazine-1-carbonyl)-1H-imidazol-2(3H)-one] |
| > 1 | Cc1ccccc1-n1c(-c2ccccc2)c(C(=O)N2CCNCC2)n(CCCNC(=O)CC(C)C)c1=O [Example 165, 3-Methyl-N-(3-(2-oxo-4-phenyl-5-(piperazine-1-carbonyl)-3-o-tolyl-2,3-dihydro-1H-imidazol-1-yl)propyl)butanamide] |
| > 1 | Cc1ccccc1-n1c(-c2ccccc2)c(C(=O)N2CCNCC2)n(CCNC(=O)NC(C)C)c1=O [Example 216, 1-Isopropyl-3-(2-(2-oxo-4-phenyl-5-(piperazine-1-carbonyl)-3-o-tolyl-2,3-dihydro-1H-imidazol-1-yl)ethyl)urea] |
| < 0.1 | O=C(c1c(-c2ccccc2)n(-c2cccc(N3CCOCC3)c2)c(=O)n1Cc1cccc(OCc2ccccc2)c1)N1CCNCC1 [Example 76, 1-(3-(Benzyloxy)benzyl)-3-(3-morpholinophenyl)-4-phenyl-5-(piperazine-1-carbonyl)-1H-imidazol-2(3H)-one] |
| < 0.1 | O=C(c1c(-c2ccccc2)n(-c2cccc(N3CCOCC3)c2)c(=O)n1Cc1cccc(-n2cccc2)c1)N1CCNCC1 [Example 77, 1-(3-(1H-Pyrrol-1-yl)benzyl)-3-(3-morpholinophenyl)-4-phenyl-5-(piperazine-1-carbonyl)-1H-imidazol-2(3H)-one] |
| < 0.1 | O=C(c1[nH]c(=O)n(-c2ccccc2NS(=O)(=O)c2ccccc2)c1-c1ccccc1)N1CCNC[C@H]1Cc1ccccc1 [Example 125, (R)—N-(2-(4-(2-benzylpiperazine-1-carbonyl)-2-oxo-5-phenyl-2,3-dihydro-1H-imidazol-1-yl)phenyl)Benzenesulfonamide] |
| 0.1 to 0.5 | COc1ccccc1-n1c(-c2ccccc2)c(C(=O)N2CCNCC2)n(CCNC(=O)c2ccccc2)c1=O [Example 168, N-(2-(3-(2-Methoxyphenyl)-2-oxo-4-phenyl-5-(piperazine-1-carbonyl)-2,3-dihydro-1H-imidazol-1-yl)ethyl)benzamide] |
| 0.1 to 0.5 | Cc1ccccc1-n1c(-c2ccccc2)c(C(=O)N2CCNCC2)n(Cc2cccc(OCCOc3ccccc3)c2)c1=O [Example 149, 1-(3-(2-Phenoxyethoxy)benzyl)-4-phenyl-5-(piperazine-1-carbonyl)-3-o-tolyl-1H-imidazol-2(3H)-one] |
| > 1 | O=C(c1ccccc1)N1CCCC(n2c(-c3ccccc3)c(C(=O)N3CCNCC3)n(Cc3ccccc3)c2=O)C1 (stereo not drawn) [Example 95, 1-(1-Benzoylpiperidin-3-yl)-3-benzyl-5-phenyl-4-(piperazine-1-carbonyl)-1H-imidazol-2(3H)-one] |
| > 1 | Cc1ccccc1-n1c(-c2ccccc2)c(C(=O)N2CCNCC2)n(CCCNC(=O)c2ccc(Cl)cc2)c1=O [Example 243, 4-Chloro-N-(3-(2-oxo-4-phenyl-5-(piperazine-1-carbonyl)-3-o-tolyl-2,3-dihydro-1H-imidazol-1-yl)propyl)benzamide] |
